Patent publication EP4745135A1 (Gluetacs Therapeutics (Shanghai) Co., Ltd., priority 2023, dated 2025)

Experiments:
CK1α = target: T1, CK1α (Homo sapiens, UniProt P48729+Q96SW2); assay: Western blot, degradation of substrate protein in hPBMCs; format: cell-based
T1 construct: effects of the compounds of the present disclosure on the expression of target proteins in cells; endogenous in cells; host or cells: human PBMCs (Milecell Biotechnologies)
Experimental: (§1) Conventional Western blot assay was performed to evaluate the effects of the compounds of the present disclosure on the expression of target proteins in cells. • (1) Cell Seeding and Protein Harvesting: Human peripheral blood mononuclear cells (hPBMCs) at a density of 1×10^6 cells/mL were thawed according to the PBMC Recovery Protocol (Milecell Biotechnologies Inc, Shanghai). […] After 24 hours of compounds treatment, cells were harvested and lysed in RIPA protein lysate containing protease inhibitors on ice for 30 min, followed by centrifugation. The supernatant was aspirated as the extracted total cell protein. The protein concentration of the supernatant was determined using the conventional BCA (Bicinchoninic Acid) assay. • (2) To the collected supernatant, 5X SDS sample loading buffer was added, followed by denaturation at 95°C for 5 minutes. The denatured samples were then separated by SDS-PAGE electrophoresis on a polyacrylamide gel, transferred onto a nitrocellulose membrane (0.45 µm NC membrane), blocked with blocking buffer at room temperature for 1 hour, and subjected to antibody incubation and development procedures according to the antibody manufacturer's instructions (Cell Signaling Technology Company).
(§2) Half-Maximal Degradation Concentration value (the drug concentration required for degrading proteins by 50%, abbreviated as DC50) reads method: comparing the grayscale values of Western blot bands from drug-treated samples with those from blank DMSO-treated controls, and identifying the drug concentration range at which the grayscale value is half that of the DMSO-treated control bands.
(§3) DC50 values can be calculated using ImageJ software to measure grayscale values of Western blot bands from drug-treated samples. The concentration-response curve is fitted to estimate the drug concentration corresponding to half the grayscale value.
(§4) Target protein remaining (%) refers to the percentage of target protein remaining in cells after treatment with protein degrader compounds.
(§5) Calculation method for target protein remaining (%): Use ImageJ software to measure grayscale values of Western blot bands from drug (protein degrader)-treated samples. The grayscale value of drug-treated bands is divided by that of internal control protein bands, and the resulting quotient is normalized to obtain the relative percentage of remaining target protein after protein degrader treatment.
(§6) Target protein degradation rate (%) = 1−target protein remaining (%). [formula]

IKZF1 = target: T2, IKZF1 (Homo sapiens, UniProt Q13422+Q96SW2); assay: as above; format: cell-based
T2 construct: effects of the compounds of the present disclosure on the expression of target proteins in cells; endogenous in cells; host or cells: human PBMCs (Milecell Biotechnologies)
T2 sequence (Q13422 whole entry): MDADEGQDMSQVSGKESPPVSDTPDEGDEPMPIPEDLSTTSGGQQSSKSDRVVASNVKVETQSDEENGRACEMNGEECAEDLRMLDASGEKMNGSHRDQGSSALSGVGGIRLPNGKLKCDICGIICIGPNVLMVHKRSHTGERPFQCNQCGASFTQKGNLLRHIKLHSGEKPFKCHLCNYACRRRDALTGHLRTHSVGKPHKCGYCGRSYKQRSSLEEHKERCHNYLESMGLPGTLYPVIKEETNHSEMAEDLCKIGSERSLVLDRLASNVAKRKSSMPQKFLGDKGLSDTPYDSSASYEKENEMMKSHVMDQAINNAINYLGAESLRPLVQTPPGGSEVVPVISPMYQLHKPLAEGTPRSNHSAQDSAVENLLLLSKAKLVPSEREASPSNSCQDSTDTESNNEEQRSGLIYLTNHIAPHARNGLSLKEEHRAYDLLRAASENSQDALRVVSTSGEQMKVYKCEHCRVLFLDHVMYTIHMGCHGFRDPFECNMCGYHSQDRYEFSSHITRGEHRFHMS
T2 sequence (Q96SW2 whole entry): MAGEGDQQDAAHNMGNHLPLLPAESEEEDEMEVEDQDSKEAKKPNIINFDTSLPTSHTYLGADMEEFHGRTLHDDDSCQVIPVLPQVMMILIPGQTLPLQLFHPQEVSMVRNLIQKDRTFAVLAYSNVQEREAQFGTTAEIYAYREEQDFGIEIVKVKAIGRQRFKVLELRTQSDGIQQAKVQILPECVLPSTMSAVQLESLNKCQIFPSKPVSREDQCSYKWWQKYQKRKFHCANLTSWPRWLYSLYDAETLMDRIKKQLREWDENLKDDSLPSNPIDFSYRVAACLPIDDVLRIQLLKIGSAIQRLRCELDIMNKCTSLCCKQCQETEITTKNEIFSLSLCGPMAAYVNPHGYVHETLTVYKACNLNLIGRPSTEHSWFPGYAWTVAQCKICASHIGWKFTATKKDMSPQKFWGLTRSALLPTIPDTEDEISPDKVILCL
T2 sequence (Q16531 whole entry partner): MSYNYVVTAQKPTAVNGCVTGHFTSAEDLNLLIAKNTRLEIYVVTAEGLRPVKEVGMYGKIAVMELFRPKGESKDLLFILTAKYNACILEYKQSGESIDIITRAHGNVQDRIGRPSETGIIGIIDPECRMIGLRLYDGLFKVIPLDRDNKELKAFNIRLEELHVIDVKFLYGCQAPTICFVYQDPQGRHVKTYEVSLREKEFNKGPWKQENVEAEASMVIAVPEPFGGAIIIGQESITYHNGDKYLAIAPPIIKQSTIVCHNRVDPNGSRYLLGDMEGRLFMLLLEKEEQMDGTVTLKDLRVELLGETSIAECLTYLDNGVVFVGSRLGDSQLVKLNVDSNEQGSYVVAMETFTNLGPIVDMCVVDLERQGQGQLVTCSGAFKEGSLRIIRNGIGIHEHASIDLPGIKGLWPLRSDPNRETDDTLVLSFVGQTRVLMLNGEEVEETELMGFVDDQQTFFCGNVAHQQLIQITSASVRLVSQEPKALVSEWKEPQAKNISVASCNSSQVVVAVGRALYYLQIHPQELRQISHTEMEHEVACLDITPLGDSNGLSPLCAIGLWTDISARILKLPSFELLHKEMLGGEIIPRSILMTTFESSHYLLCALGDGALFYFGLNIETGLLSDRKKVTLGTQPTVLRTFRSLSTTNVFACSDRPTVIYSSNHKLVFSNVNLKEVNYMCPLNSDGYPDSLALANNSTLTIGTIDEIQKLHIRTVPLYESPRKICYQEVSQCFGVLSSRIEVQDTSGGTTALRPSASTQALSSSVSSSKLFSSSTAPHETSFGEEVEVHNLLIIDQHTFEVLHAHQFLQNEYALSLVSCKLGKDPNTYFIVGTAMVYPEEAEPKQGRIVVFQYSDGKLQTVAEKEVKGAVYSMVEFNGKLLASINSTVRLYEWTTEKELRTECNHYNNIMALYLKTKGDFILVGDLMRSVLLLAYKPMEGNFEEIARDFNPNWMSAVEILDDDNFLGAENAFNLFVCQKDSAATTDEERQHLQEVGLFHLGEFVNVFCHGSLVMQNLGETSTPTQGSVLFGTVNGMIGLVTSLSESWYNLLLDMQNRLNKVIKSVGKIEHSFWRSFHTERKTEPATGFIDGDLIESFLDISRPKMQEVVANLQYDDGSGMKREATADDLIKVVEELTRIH
Experimental: as §1, §2, §3, §4, §5, §6

IKZF2 = target: T3, IKZF2 (Homo sapiens, UniProt Q96SW2+Q9UKS7); assay: as above; format: cell-based
T3 construct: effects of the compounds of the present disclosure on the expression of target proteins in cells; endogenous in cells; host or cells: human PBMCs (Milecell Biotechnologies)
T3 sequence (Q9UKS7 whole entry): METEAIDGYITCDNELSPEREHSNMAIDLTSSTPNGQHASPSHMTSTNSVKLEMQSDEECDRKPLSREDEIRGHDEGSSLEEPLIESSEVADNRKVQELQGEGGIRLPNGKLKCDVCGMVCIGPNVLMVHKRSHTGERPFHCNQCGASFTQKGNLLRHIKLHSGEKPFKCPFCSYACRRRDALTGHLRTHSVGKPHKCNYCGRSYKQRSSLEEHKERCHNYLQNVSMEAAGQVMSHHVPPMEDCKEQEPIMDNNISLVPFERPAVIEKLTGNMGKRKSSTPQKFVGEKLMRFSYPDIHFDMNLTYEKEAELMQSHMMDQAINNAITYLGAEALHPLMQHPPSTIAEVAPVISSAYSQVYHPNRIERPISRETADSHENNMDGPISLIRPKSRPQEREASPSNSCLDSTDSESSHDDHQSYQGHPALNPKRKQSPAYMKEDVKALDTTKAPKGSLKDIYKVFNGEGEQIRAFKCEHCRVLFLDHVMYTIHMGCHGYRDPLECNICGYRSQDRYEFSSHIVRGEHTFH
T3 sequence (Q96SW2 whole entry): as the sequence (Q96SW2 whole entry) above
T3 sequence (Q16531 whole entry partner): as the sequence (Q16531 whole entry partner) above
Experimental: as §1, §2, §3, §4, §5, §6

IKZF3 = target: T4, IKZF3 (Homo sapiens, UniProt Q96SW2+Q9UKT9); assay: as above; format: cell-based
T4 construct: effects of the compounds of the present disclosure on the expression of target proteins in cells; endogenous in cells; host or cells: human PBMCs (Milecell Biotechnologies)
T4 sequence (Q9UKT9 whole entry): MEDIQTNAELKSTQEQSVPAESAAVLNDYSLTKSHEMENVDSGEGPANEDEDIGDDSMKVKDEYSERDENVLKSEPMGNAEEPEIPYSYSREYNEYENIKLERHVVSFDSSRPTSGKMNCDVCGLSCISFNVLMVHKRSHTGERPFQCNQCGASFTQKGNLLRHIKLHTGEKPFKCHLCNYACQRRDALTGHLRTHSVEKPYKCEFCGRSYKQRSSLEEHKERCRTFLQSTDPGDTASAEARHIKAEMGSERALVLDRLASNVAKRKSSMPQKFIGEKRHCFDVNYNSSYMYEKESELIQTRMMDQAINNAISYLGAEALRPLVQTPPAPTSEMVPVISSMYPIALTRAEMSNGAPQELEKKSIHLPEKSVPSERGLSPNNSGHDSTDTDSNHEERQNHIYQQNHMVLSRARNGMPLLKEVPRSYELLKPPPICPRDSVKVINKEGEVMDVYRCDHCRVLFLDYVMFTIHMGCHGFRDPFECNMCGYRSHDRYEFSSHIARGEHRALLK
T4 sequence (Q96SW2 whole entry): as the sequence (Q96SW2 whole entry) above
T4 sequence (Q16531 whole entry partner): as the sequence (Q16531 whole entry partner) above
Experimental: as §1, §2, §3, §4, §5, §6

WEE1 = target: T5, WEE1 (Homo sapiens, UniProt P30291+Q96SW2); assay: as above; format: cell-based
T5 construct: effects of the compounds of the present disclosure on the expression of target proteins in cells; endogenous in cells; host or cells: human PBMCs (Milecell Biotechnologies)
T5 sequence (P30291 whole entry): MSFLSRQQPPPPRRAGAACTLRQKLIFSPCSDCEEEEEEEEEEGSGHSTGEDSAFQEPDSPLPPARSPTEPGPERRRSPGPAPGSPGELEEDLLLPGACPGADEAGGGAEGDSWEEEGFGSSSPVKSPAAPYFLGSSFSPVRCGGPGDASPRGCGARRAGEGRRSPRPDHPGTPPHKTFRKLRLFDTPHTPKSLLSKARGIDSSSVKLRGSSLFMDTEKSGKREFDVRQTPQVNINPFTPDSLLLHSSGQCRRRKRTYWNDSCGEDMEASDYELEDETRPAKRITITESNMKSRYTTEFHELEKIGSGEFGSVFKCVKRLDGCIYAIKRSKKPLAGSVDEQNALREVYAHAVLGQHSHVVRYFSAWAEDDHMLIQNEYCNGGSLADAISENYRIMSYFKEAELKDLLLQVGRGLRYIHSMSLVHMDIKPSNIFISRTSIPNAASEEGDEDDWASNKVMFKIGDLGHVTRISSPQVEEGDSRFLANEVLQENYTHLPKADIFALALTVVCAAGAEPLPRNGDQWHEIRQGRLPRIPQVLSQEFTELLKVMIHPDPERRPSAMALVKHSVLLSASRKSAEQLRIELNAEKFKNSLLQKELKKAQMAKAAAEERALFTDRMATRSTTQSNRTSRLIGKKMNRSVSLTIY
T5 sequence (Q96SW2 whole entry): as the sequence (Q96SW2 whole entry) above
T5 sequence (Q16531 whole entry partner): as the sequence (Q16531 whole entry partner) above
Experimental: as §1, §2, §3, §4, §5, §6

GSPT1 = assay: as above; format: cell-based, Human
[1] = target: T6, human Cereblon WT GST-tagged protein (Homo sapiens, UniProt Q96SW2); assay: CRBN-binding affinity, HTRF (CEREBLON BINDING kit); conditions: for inhibition at 0.5 µM: read-out: Inhibition Rate at 0.5 µM (%); for inhibition at 2 µM: read-out: Inhibition Rate at 2 µM (%)
T6 construct: purchased CISBIO 64BDCRBNPEH
T6 sequence (Q96SW2 whole entry): as the sequence (Q96SW2 whole entry) above

[2] = 24 hours treatment, compounds at 50 nM and 500 nM (concentration behind the class not stated)
[3] = Western blot, 24 hours of compound treatment, compounds tested at 50 nM and 500 nM (concentration for the table not stated)

T1 sequence (P48729 whole entry): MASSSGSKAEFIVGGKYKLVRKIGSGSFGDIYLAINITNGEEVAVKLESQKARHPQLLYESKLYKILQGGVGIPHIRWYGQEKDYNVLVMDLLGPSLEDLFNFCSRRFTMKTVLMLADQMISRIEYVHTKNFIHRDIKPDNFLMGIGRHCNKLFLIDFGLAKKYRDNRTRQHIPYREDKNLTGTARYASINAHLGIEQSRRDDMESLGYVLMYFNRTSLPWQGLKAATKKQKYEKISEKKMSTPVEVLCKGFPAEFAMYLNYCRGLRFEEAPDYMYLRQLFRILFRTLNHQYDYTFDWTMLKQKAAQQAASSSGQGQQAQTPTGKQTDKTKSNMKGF
T1 sequence (Q96SW2 whole entry): as the sequence (Q96SW2 whole entry) above
T1 sequence (Q16531 whole entry partner): as the sequence (Q16531 whole entry partner) above

Compound	CK1α substrate protein remaining % (CK1α; [2])	IKZF 1 substrate protein remaining % (IKZF1; [2])	IKZF2 substrate protein remaining % (IKZF2; [2])	IKZF3 substrate protein remaining % (IKZF3; [2])	Wee1 substrate protein remaining % (WEE1; [2])	GSPT1 substrate protein remaining % (GSPT1; [2])	inhibition at 0.5 µM [1]	inhibition at 2 µM [1]	CK1α substrate protein remaining % (CK1α; [3])	IKZF 1 substrate protein remaining % (IKZF1; [3])	IKZF2 substrate protein remaining % (IKZF2; [3])	IKZF3 substrate protein remaining % (IKZF3; [3])	Wee1 substrate protein remaining % (WEE1; [3])	GSPT1 substrate protein remaining % (GSPT1; [3])
O=C1CCC(N2Cc3c(CN4CCc5sccc5C4)cccc3C2=S)C(=O)N1 (centres unmarked) [GT-08333, 3-(4-((6,7-dihydrothieno[3,2-c]pyridin-5(4H)-yl)methyl)-1-thioxoisoindolin-2-yl)piperidine-2,6-dione]	A (0% ≤ substrate protein remaining % ≤ 80%)	B (80%< substrate protein remaining %≤ 100%)	B (80%< substrate protein remaining %≤ 100%)	B (80%< substrate protein remaining %≤ 100%)	A (0% ≤ substrate protein remaining % ≤ 80%)	A (0% ≤ substrate protein remaining % ≤ 80%)	60 to 80%	80 to 100%	–	–	–	–	–	–
Cc1ccc(N2CCN(Cc3cccc4c3CN(C3CCC(=O)NC3=O)C4=S)CC2)s1 (centres unmarked) [GT-08305, 3-(4-((4-(5-methylthiophen-2-yl)piperazin-1-yl)methyl)-1-thioxoisoindolin-2-yl)piperidine-2,6-dione]	B (80%< substrate protein remaining %≤ 100%)	B (80%< substrate protein remaining %≤ 100%)	A (0% ≤ substrate protein remaining % ≤ 80%)	B (80%< substrate protein remaining %≤ 100%)	B (80%< substrate protein remaining %≤ 100%)	B (80%< substrate protein remaining %≤ 100%)	60 to 80%	80 to 100%	–	–	–	–	–	–
O=C1CCC(N2Cc3c(CN4CCC(c5ccc(Cl)cc5)CC4)cccc3C2=S)C(=O)N1 (centres unmarked) [GT-08594, 3-(4-((4-(4-chlorophenyl)piperidin-1-yl)methyl)-1-thioxoisoindolin-2-yl)piperidine-2,6-dione]	–	–	–	–	–	–	30 to 40%	53 to 60%	B (80%< substrate protein remaining %≤ 100%)	B (80%< substrate protein remaining %≤ 100%)	A (0% ≤ substrate protein remaining % ≤ 80%)	B (80%< substrate protein remaining %≤ 100%)	A (0% ≤ substrate protein remaining % ≤ 80%)	B (80%< substrate protein remaining %≤ 100%)
O=C1CCC(N2Cc3c(CN4CCN(c5ccc(F)cc5F)CC4)cccc3C2=S)C(=O)N1 (centres unmarked) [GT-08503, 3-(4-((4-(2,4-difluorophenyl)piperazin-1-yl)methyl)-1-thioxoisoindolin-2-yl)piperidine-2,6-dione]	–	–	–	–	–	–	40 to 53%	60 to 80%	B (80%< substrate protein remaining %≤ 100%)	B (80%< substrate protein remaining %≤ 100%)	B (80%< substrate protein remaining %≤ 100%)	B (80%< substrate protein remaining %≤ 100%)	A (0% ≤ substrate protein remaining % ≤ 80%)	A (0% ≤ substrate protein remaining % ≤ 80%)
O=C1CCC(N2Cc3c(CN4CCC(c5cccc(Br)c5)CC4)cccc3C2=S)C(=O)N1 (centres unmarked) [GT-08507, 3-(4-((4-(3-bromophenyl)piperidin-1-yl)methyl)-1-thioxoisoindolin-2-yl)piperidine-2,6-dione]	–	–	–	–	–	–	40 to 53%	60 to 80%	B (80%< substrate protein remaining %≤ 100%)	B (80%< substrate protein remaining %≤ 100%)	B (80%< substrate protein remaining %≤ 100%)	A (0% ≤ substrate protein remaining % ≤ 80%)	A (0% ≤ substrate protein remaining % ≤ 80%)	B (80%< substrate protein remaining %≤ 100%)
O=C1CCC(N2Cc3c(CN4CCN(c5noc6cc(F)ccc56)CC4)cccc3C2=S)C(=O)N1 (centres unmarked) [GT-08818, 3-(4-((4-(6-fluorobenzo[d]isoxazol-3-yl)piperazin-1-yl)methyl)-1-thioxoisoindolin-2-yl)piperidine-2,6-dione]	–	–	–	–	–	–	53 to 60%	60 to 80%	B (80%< substrate protein remaining %≤ 100%)	B (80%< substrate protein remaining %≤ 100%)	B (80%< substrate protein remaining %≤ 100%)	B (80%< substrate protein remaining %≤ 100%)	A (0% ≤ substrate protein remaining % ≤ 80%)	A (0% ≤ substrate protein remaining % ≤ 80%)
O=C1CCC(N2Cc3c(CN4CCN(c5cc(Cl)nnc5Cl)CC4)cccc3C2=S)C(=O)N1 (centres unmarked) [GT-08807, 3-(4-((4-(3,6-dichloropyridazin-4-yl)piperazin-1-yl)methyl)-1-thioxoisoindolin-2-yl)piperidine-2,6-dione]	–	–	–	–	–	–	60 to 80%	80 to 100%	B (80%< substrate protein remaining %≤ 100%)	B (80%< substrate protein remaining %≤ 100%)	B (80%< substrate protein remaining %≤ 100%)	B (80%< substrate protein remaining %≤ 100%)	A (0% ≤ substrate protein remaining % ≤ 80%)	B (80%< substrate protein remaining %≤ 100%)
COc1cccc(N2CCN(Cc3cccc4c3CN(C3CCC(=O)NC3=O)C4=S)CC2)c1 (centres unmarked) [GT-08304, 3-(4-((4-(3-methoxyphenyl)piperazin-1-yl)methyl)-1-thioxoisoindolin-2-yl)piperidine-2,6-dione]	–	–	–	–	–	–	60 to 80%	60 to 80%	B (80%< substrate protein remaining %≤ 100%)	A (0% ≤ substrate protein remaining % ≤ 80%)	B (80%< substrate protein remaining %≤ 100%)	B (80%< substrate protein remaining %≤ 100%)	A (0% ≤ substrate protein remaining % ≤ 80%)	B (80%< substrate protein remaining %≤ 100%)
O=C1CCC(N2Cc3c(CN4CC=C(c5ccoc5)CC4)cccc3C2=S)C(=O)N1 (centres unmarked) [GT-08319, 3-(4-((4-(furan-3-yl)-3,6-dihydropyridin-1 (2H)-yl)methyl)-1-thioxoisoindolin-2-yl)piperidine-2,6-dione]	B (80%< substrate protein remaining %≤ 100%)	B (80%< substrate protein remaining %≤ 100%)	B (80%< substrate protein remaining %≤ 100%)	A (0% ≤ substrate protein remaining % ≤ 80%)	A (0% ≤ substrate protein remaining % ≤ 80%)	B (80%< substrate protein remaining %≤ 100%)	40 to 53%	80 to 100%	–	–	–	–	–	–
Cc1cc(N2CCN(Cc3ccc4c(c3)CN(C3CCC(=O)NC3=O)C4=S)CC2)ccn1 (centres unmarked) [GT-09234, 3-(5-((4-(2-methylpyridin-4-yl)piperazin-1-yl)methyl)-1-thioxoisoindolin-2-yl)piperidine-2,6-dione]	–	–	–	–	–	–	60 to 80%	80 to 100%	A (0% ≤ substrate protein remaining % ≤ 80%)	A (0% ≤ substrate protein remaining % ≤ 80%)	A (0% ≤ substrate protein remaining % ≤ 80%)	A (0% ≤ substrate protein remaining % ≤ 80%)	A (0% ≤ substrate protein remaining % ≤ 80%)	A (0% ≤ substrate protein remaining % ≤ 80%)
